Values quoted from earlier work as cited in patent publication US20210100740A1, “BIO-ADHESIVE DISSOLVING COMPOUNDS AND DEVICE” (Segal Innovations LLC, priority 2019, published 2021).

For `CO[C@@]12[C@H](COC(N)=O)C3=C(C(=O)C(C)=C(N)C3=O)N1C[C@@H]1N[C@@H]12` [mitomycin], which “degradation in acidic solutions and when exposed to light” value (acidic solutions with a pH of less than 6, exposed to light) is on record?
Its value is “rapid degradation”.

And the “how long mitomycin lasts” value (refrigerated between 2° C. and 8° C. without being exposed to light)?
The value was “up to one week”.
